How the values were obtained:
[1] = target: T1, HSA (Homo sapiens, UniProt P02768); experiment: Three-dye; format: binding; conditions: three dyes 8 μM each on HSA 25 μM
[2] = target: T1, HSA; experiment: switchSENSE molecular dynamics mode; conditions: compound concentration tenfold higher than KD

T1 sequence (P02768 25-609): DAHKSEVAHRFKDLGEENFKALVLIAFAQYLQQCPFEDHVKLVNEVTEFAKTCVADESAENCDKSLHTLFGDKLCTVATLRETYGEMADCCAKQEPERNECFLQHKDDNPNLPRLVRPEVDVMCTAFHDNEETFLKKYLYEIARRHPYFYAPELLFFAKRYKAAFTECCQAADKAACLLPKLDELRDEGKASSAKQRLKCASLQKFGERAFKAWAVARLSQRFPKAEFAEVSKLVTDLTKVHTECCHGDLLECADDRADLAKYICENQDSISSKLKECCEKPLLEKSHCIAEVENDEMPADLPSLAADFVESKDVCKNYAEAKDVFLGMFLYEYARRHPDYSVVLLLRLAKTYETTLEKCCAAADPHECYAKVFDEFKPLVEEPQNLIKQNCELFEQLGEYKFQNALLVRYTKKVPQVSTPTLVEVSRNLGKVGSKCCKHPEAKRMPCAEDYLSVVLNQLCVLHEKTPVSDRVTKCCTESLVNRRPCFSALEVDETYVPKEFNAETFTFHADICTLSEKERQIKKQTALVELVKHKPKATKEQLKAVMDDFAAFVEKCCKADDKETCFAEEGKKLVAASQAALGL

displacement of dimethylamino-BODIPY 5 a (Sudlow-site II probe) [1]	displacement of warfarin derivative 8 a (Sudlow-site I probe) [1]	displacement of NBD-FA (fatty acid binding site probe) [1]	conformational change of HSA upon binding (molecular dynamics mode) [2]	Compound
competitive	competitive			CCC(Cc1c(I)cc(I)c(O)c1I)C(=O)O (stereo not drawn) [Iophenoxic acid, iophenoxic acid]
same behavior	same behavior	same behavior		O=C(O)CCNC(=O)c1ccc(/N=N/c2ccc(O)c(C(=O)O)c2)cc1 [balsalazide]
			significant expansion	(7‐nitrobenz‐2‐oxa‐1,3‐diazol‐4‐yl)‐C12 fatty acid [NBD‐FA]
